Data taken from US10730905B2, “Substituted heteropentadieno-pyrrolopyrimidine ribonucleosides for therapeutic use” (USTAV ORGANICKE CHEMIE A BIOCHEMIE AV CR, V.V.I., priority 2016, dated 2020).

Columns and labels:
[1] = MTT cytotoxic test, MRC-5; type: cell-based; details: MRC-5 cells (normal fibroblasts), MRC-5 normal human fibroblasts
[2] = test system: K562 (human acute myeloid leukemia); experiment: MTT cytotoxic test, K562; type: cell-based; details: K562 cells
From the text: (§1) MTT test (Nosková V. et al., Neoplasma 2002, 49, 418-425) was used for in vitro evaluation of antitumor activities of newly synthesized compounds on cell lines derived from normal tissues or tumors. Specifically, cell lines K562 (human acute myeloid leukemia); K562-Tax (human acute myeloid leukemia, paclitaxel resistant subline, overexpress multiple drug resistant protein PgP); CEM (T-lymfoblastic leukemia); CEM-DNR-bulk (T-lymfoblastic leukemia, doxorubicin resistant); A549 (human lung adenocarcinoma); HCT116p53 wt (human colorectal cancer, wild-type); HCT116p53−/− (human colorectal cancer, mutant p53) a U2OS (human bone osteosarcoma) were used. Express characteristics, susceptibility profiles of classic antitumor drugs as well as methodology of cytotoxic MTT test have been repeatedly published (Denizot, F.; Lang, R., J. Immunol. Meth. 1986, 89, 271-277; Noskova, V., see above; S̆arek J. et al., J, Med. Chem., 2003).

[3] = test system: HCT116p53−/− (human colorectal cancer, mutant p53); experiment: MTT cytotoxic test, HCT116p53; type: cell-based; details: HCT116p53 cells (p53 −/−)
From the text: as §1

[4] = test system: CCRF-CEM (CEM, T-lymfoblastic leukemia); experiment: MTT cytotoxic test, CCRF-CEM; type: cell-based; details: Homo sapiens, CCRF-CEM cells
From the text: as §1

[5] = test system: K562-Tax (human acute myeloid leukemia, paclitaxel resistant subline); experiment: MTT cytotoxic test, K562-TAX; type: cell-based; details: K562-TAX cells
From the text: as §1

[6] = test system: A549 (human lung adenocarcinoma); experiment: MTT cytotoxic test, A549; type: cell-based; details: A549 cells
From the text: as §1

[7] = test system: CEM-DNR-bulk (T-lymfoblastic leukemia, doxorubicin resistant); experiment: MTT cytotoxic test, CEM-DNR; type: cell-based; details: Homo sapiens, CEM-DNR cells
From the text: as §1

[8] = test system: HCT116p53 wt (human colorectal cancer, wild-type); experiment: MTT cytotoxic test, HCT116; type: cell-based; details: HCT-116, HCT116 cells, p53 wild type
From the text: as §1

[9] = test system: U2OS (human bone osteosarcoma); experiment: MTT cytotoxic test, U2OS; type: cell-based; details: U2OS cells
From the text: as §1

Row | Structure (SMILES) | melting point | IC50 [1] [µM] | IC50 [2] [µM] | IC50 [3] [µM] | IC50 [4] [µM] | IC50 [5] [µM] | IC50 [6] [µM] | IC50 [7] [µM] | IC50 [8] [µM] | IC50 [9] [µM]
1 | Nc1ncnc2c1c1occc1n2[C@@H]1O[C@H](CO)[C@@H](O)[C@H]1O [Compound 1d, 8-(β-D-ribofuranosyl)-8H-furo[2′,3′:4,5]pyrrolo[2,3-d]pyrimidin-4-amine] | 246 to 253 °C | 25 to 50 | 0.9 to 10 | 25 to 50 | 25 to 50 | 25 to 50 | 25 to 50 | 25 to 50 | 25 to 50 | 0.9 to 10
2 | OC[C@H]1O[C@@H](n2c3ccoc3c3c(-c4ccoc4)ncnc32)[C@H](O)[C@@H]1O [Compound 1f, 4-(Furan-3-yl)-8-(β-D-ribofuranosyl)-8H-furo[2′,3′:4,5]pyrrolo[2,3-d]pyrimidine] |  | 25 to 50 | 0.2 to 0.9 | 10 to 25 | 0.2 to 0.9 | 0.9 to 10 | 25 to 50 | 25 to 50 | 10 to 25 | 0.2 to 0.9
3 | OC[C@H]1O[C@@H](n2c3ccoc3c3c(-c4cc5ccccc5o4)ncnc32)[C@H](O)[C@@H]1O [Compound 1g, 4-(Benzofuran-2-yl)-8-(β-D-ribofuranosyl)-8H-furo[2′,3′:4,5]pyrrolo[2,3-d]pyrimidine] |  | 25 to 50 | 25 to 50 | 25 to 50 | 10 to 25 | 10 to 25 | 25 to 50 | 25 to 50 | 25 to 50 | 25 to 50
4 | CSc1ncnc2c1c1occc1n2[C@@H]1O[C@H](CO)[C@@H](O)[C@H]1O [Compound 1c] | 213 to 217 °C | 0.9 to 10 | 0.2 to 0.9 | 0.2 to 0.9 | 0.2 to 0.9 | 0.9 to 10 | 0.9 to 10 | 0.9 to 10 | 0.2 to 0.9 | 0.2 to 0.9
5 | COc1ncnc2c1c1occc1n2[C@@H]1O[C@H](CO)[C@@H](O)[C@H]1O [Compound 1b, 4-Methoxy-8-(β-D-ribofuranosyl)-8H-furo[2′,3′:4,5]pyrrolo[2,3-d]pyrimidine] | 216 to 219 °C | 10 to 25 | 0.2 to 0.9 | 0.2 to 0.9 | 0.01 to 0.2 | 0.2 to 0.9 | 0.9 to 10 | 0.9 to 10 | 0.2 to 0.9 | 0.2 to 0.9
6 | CN(C)c1ncnc2c1c1occc1n2[C@@H]1O[C@H](CO)[C@@H](O)[C@H]1O [Compound 1h, N,N-dimethyl-8-(β-D-ribofuranosyl)-8H-furo[2′,3′:4,5]pyrrolo[2,3-d]pyrimidin-4-amine] | 212 to 255 °C (dec.) | 25 to 50 | 25 to 50 | 25 to 50 | 25 to 50 | 25 to 50 | 25 to 50 | 25 to 50 | 25 to 50 | 25 to 50
7 | Cc1ncnc2c1c1occc1n2[C@@H]1O[C@H](CO)[C@@H](O)[C@H]1O [Compound 1a, 4-Methyl-8-(β-D-ribofuranosyl)-8H-furo[2′,3′:4,5]pyrrolo[2,3-d]pyrimidine] |  | 25 to 50 | 0.2 to 0.9 | 0.2 to 0.9 | 0.2 to 0.9 | 0.9 to 10 | 0.9 to 10 | 25 to 50 | 0.2 to 0.9 | 0.2 to 0.9
8 | OC[C@H]1O[C@@H](n2c3ccoc3c3c(-c4ccco4)ncnc32)[C@H](O)[C@@H]1O [Compound 1e, 4-(Furan-2-yl)-8-(β-D-ribofuranosyl)-8H-furo[2′,3′:4,5]pyrrolo[2,3-d]pyrimidine] |  | 25 to 50 | 0.9 to 10 | 25 to 50 | 0.2 to 0.9 | 0.9 to 10 | 25 to 50 | 25 to 50 | 25 to 50 | 0.9 to 10

Further lines, with some results ahead:

Row | melting point | Structure (SMILES) | IC50 [1] [µM] | IC50 [2] [µM] | IC50 [3] [µM] | IC50 [4] [µM] | IC50 [5] [µM] | IC50 [6] [µM] | IC50 [7] [µM] | IC50 [8] [µM] | IC50 [9] [µM]
9 | 217 to 219 °C | Cn1ccc2c1c1c(Cl)ncnc1n2[C@@H]1O[C@H](CO)[C@@H](O)[C@H]1O [Compound 2i, 4-chloro-5-methyl-8-(β-D-ribofuranosyl)-5,8-dihydropyrrolo[2′,3′:4,5]pyrrolo[2,3-d]pyrimidine] | 25 to 50 | 0.01 to 0.2 | 0.01 to 0.2 | 0.01 to 0.2 | 25 to 50 | 0.9 to 10 | 25 to 50 | 0.01 to 0.2 | 0.9 to 10
10 | 99 to 106 °C | CN(C)c1ncnc2c1c1c(ccn1C)n2[C@@H]1O[C@H](CO)[C@@H](O)[C@H]1O [Compound 2h, N,N,5-trimethyl-8-(β-D-ribofuranosyl)-5,8-dihydropyrrolo[2′,3′:4,5]pyrrolo[2,3-d]pyrimidin-4-amine] | 25 to 50 | 25 to 50 | 25 to 50 | 25 to 50 | 25 to 50 | 25 to 50 | 25 to 50 | 25 to 50 | 25 to 50
11 | 237 to 241 °C | Cc1ncnc2c1c1c(ccn1C)n2[C@@H]1O[C@H](CO)[C@@H](O)[C@H]1O [Compound 2a, 4,5-Dimethyl-8-(β-D-ribofuranosyl)-5,8-dihydropyrrolo[2′,3′:4,5]pyrrolo[2,3-d]pyrimidine] | 25 to 50 | 0.2 to 0.9 | 0.2 to 0.9 | 0.2 to 0.9 | 25 to 50 |  | 25 to 50 | 0.2 to 0.9 | 0.2 to 0.9
12 | 145 to 154 °C | Cn1ccc2c1c1c(-c3cc4ccccc4o3)ncnc1n2[C@@H]1O[C@H](CO)[C@@H](O)[C@H]1O [Compound 2g, 4-(Benzofuran-2-yl)-5-methyl-8-(β-D-ribofuranosyl)-5,8-dihydropyrrolo[2′,3′:4,5]pyrrolo[2,3-d]pyrimidine] | 25 to 50 | 25 to 50 | 25 to 50 | 10 to 25 | 25 to 50 | 25 to 50 | 25 to 50 | 25 to 50 | 25 to 50
13 | 240 to 245 °C (dec.) | Cn1ccc2c1c1c(N)ncnc1n2[C@@H]1O[C@H](CO)[C@@H](O)[C@H]1O [Compound 2d, 5-methyl-8-(β-D-ribofuranosyl)-5,8-dihydropyrrolo[2′,3′:4,5]pyrrolo[2,3-d]pyrimidin-4-amine] | 25 to 50 | 25 to 50 | 25 to 50 | 25 to 50 | 25 to 50 | 25 to 50 | 25 to 50 | 25 to 50 | 25 to 50
14 | 245 to 253 °C | Cn1ccc2c1c1c(-c3ccco3)ncnc1n2[C@@H]1O[C@H](CO)[C@@H](O)[C@H]1O [Compound 2e, 4-(Furan-2-yl)-5-methyl-8-(β-D-ribofuranosyl)-5,8-dihydropyrrolo[2′,3′:4,5]pyrrolo[2,3-d]pyrimidine] | 25 to 50 | 25 to 50 | 25 to 50 | 25 to 50 | 25 to 50 | 25 to 50 | 25 to 50 | 25 to 50 | 0.9 to 10
15 | 212 to 214 °C | CSc1ncnc2c1c1c(ccn1C)n2[C@@H]1O[C@H](CO)[C@@H](O)[C@H]1O [Compound 2c, 5-Methyl-4-(methylsulfanyl)-8-(β-D-ribofuranosyl)-5,8-dihydropyrrolo[2′,3′:4,5]pyrrolo-[2,3-d]-pyrimidine] | 25 to 50 | 0.2 to 0.9 | 0.2 to 0.9 | 0.2 to 0.9 | 25 to 50 | 25 to 50 | 25 to 50 | 0.2 to 0.9 | 0.9 to 10
16 | 231 to 234 °C | COc1ncnc2c1c1c(ccn1C)n2[C@@H]1O[C@H](CO)[C@@H](O)[C@H]1O [Compound 2b, 4-Methoxy-5-methyl-8-(β-D-ribofuranosyl)-5,8-dihydropyrrolo[2′,3′:4,5]pyrrolo[2,3-d]pyrimidine] | 25 to 50 | 0.2 to 0.9 | 0.2 to 0.9 | 0.2 to 0.9 | 25 to 50 | 25 to 50 | 25 to 50 | 0.2 to 0.9 | 0.9 to 10
17 | 202 to 207 °C | Cn1ccc2c1c1c(-c3ccoc3)ncnc1n2[C@@H]1O[C@H](CO)[C@@H](O)[C@H]1O [Compound 2f, 4-(Furan-3-yl)-5-methyl-8-(β-D-ribofuranosyl)-5,8dihydropyrrolo[2′,3′:4,5]pyrrolo[2,3-d]pyrimidine] | 25 to 50 | 0.9 to 10 | 0.9 to 10 | 25 to 50 | 25 to 50 | 25 to 50 | 25 to 50 | 25 to 50 | 0.9 to 10
